# B1: Rapamycin 42 Ester with (N-(3-carboxyphenyl)-3-thiosuccinimidyl)-glycine Conjugate with Horseradish Peroxidase (conjugate, UniProt P00433 31-338, looked up)
# Peroxidase C1A: QLTPTFYDNSCPNVSNIVRDTIVNELRSDPRIAASILRLHFHDCFVNGCDASILLDNTTSFRTEKDAFGNANSARGFPVIDRMKAAVESACPRTVSCADLLTIAAQQSVTLAGGPSWRVPLGRRDSLQAFLDLANANLPAPFFTLPQLKDSFRNVGLNRSSDLVALSGGHTFGKNQCRFIMDRLYNFSNTGLPDPTLNTTYLQTLRGLCPLNGNLSALVDFDLRTPTIFDNKYYVNLEEQKGLIQSDQELFSSPNATDTIPLVRSFANSTQTFFNAFVEAMDRMGNITPLTGTQGQIRLNCRVVNSNS
# modifications: rapamycin 42-ester hapten conjugate
# What was measured:
# [1] = test system: rapamycin specific antibody; assay: BIAcore binding of antibody to matrix-immobilized compound; conditions: 803 resonance units (RU) of the compound immobilized on a solid matrix, EDC and NHS
# Procedure: The following example illustrates that 803 resonance units (RU) of the compound of Example 11 can be immobilized on a solid matrix using the BIAcore's standard protocol based on EDC and NHS used in a BIAcore. […] The kinetics of association and dissociation were determined for each concentration of antibody tested (0.625, 1.25, 2.5, 5.0, 10.0 ug/ml). […] This matrix can also be used for the isolation of novel binding proteins, as practiced by one skilled in the art. […] In one approach, tissue or cell lysates containing the appropriate protease inhibitors are incubated with FKBP which has been incubated with a deprotected-rapamycin 42-ester with N-[9fluoren-9-ylmethoxy)carbonyl]glycine conjugated matrix for a sufficient time to allow binding. Various buffers are used to rinse the proteins which are nonspecifically bound.
# RAP-42-OVAF2#1 MoAb = conditions: for fluorescence polarization on addition of RAP-42-OVAF2#1 MoAb: 5 ug/mL MoAb
# Excerpt: The hybridoma cell line in P4G1 was cloned by limiting dilution and is designated as hybridoma cell line, RAP-42-OVAF2#1hc.
# FKBP12 [2] = biological target: T1, FKBP12 (Homo sapiens, UniProt P62942); assay: Fluorescence polarization, tracer binding to FKBP12; conditions: for fluorescence polarization on addition of FKBP12: 0.ug FKBP12 to 1.00 mL 10 nM tracer; for fluorescence polarization before addition of FKBP12: 1.00 mL 10 nM tracer
# T1 sequence (P62942 whole entry, species assumed): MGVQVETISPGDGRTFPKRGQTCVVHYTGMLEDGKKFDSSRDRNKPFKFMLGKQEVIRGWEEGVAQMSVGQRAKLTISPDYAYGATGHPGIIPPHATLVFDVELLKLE
# FKBP12 [3] = biological target: T1, FKBP12; assay: Fluorescence polarization competition, rapamycin-fluorescein and FKBP12; type: binding
# Anti-rapamycin Antibody = assay: Capture ELISA of anti-rapamycin antibody levels in rabbit sera; type: binding; conditions: sera diluted 1:5, conjugate 0.5 ng/ml
# Procedure: Microtiter plates (IMMUNOLON I) were coated overnight with 100 μl of goat anti-mouse antibody (10 μg/ml in 10 mM potassium phosphate buffer, pH 7.2) at 4° C. The plates were flicked and blocked with 100 μl of 1% bovine sera albumin in phosphate buffered saline overnight at 4° C. […] After flicking and washing the plates thrice with wash buffer, TMB substrate with H2O2 was added and the plates were incubated covered for 30 min. at room temperature in the dark. The optical density was read on a spectrophotometer at 450 nm.
# mice = conditions: 50 μg intrasplenically in Complete Freund's Adjuvant, boost 50 μg into footpads
# Procedure: Microtiter plates (IMMUNOLON I) were coated overnight with 100 μl of goat anti-mouse antibody (10 μg/ml in 10 mM potassium phosphate buffer, pH 7.2) at 4° C. The plates were flicked and blocked with 100 μl of 1% bovine sera albumin in phosphate buffered saline overnight at 4° C. After flicking and washing the plates thrice with 10 mM phosphate buffer, pH 7.05, 30 mM NaCl, 0.02% TRITON X-100 (polyethylene glycol tert-octylphenyl ether) and 0.004% thimerosal wash buffer, 100 μl of each mouse sera diluted with phosphate buffer solution was added to a well and incubated at room temperature for overnight.
# [4] = tracer 10 nM in 100 mM sodium phosphate pH 7.5
molecule,measurement,setting,value
COC1CC2CCC(C)C(O)(O2)C(=O)C(=O)N2CCCCC2C(=O)OC(C(C)CC2CCC(OC(=O)CNC(=O)OCC3c4ccccc4-c4ccccc43)C(OC)C2)CC(=O)C(C)C=C(C)C(O)C(OC)C(=O)C(C)CC(C)C=CC=CC=C1C (stereo not shown) [Example 11],rapamycin specific antibody bound by the matrix,[1],1401 RU
"CO[C@H]1C[C@@H]2CC[C@@H](C)[C@@](O)(O2)C(=O)C(=O)N2CCCC[C@H]2C(=O)O[C@H]([C@H](C)C[C@@H]2CC[C@@H](OC(=O)CCC(=O)NCC(=O)Nc3ccc4c(c3)C(=O)OC43c4ccc(O)cc4Oc4cc(O)ccc43)[C@H](OC)C2)CC(=O)[C@H](C)/C=C(\C)[C@@H](O)[C@@H](OC)C(=O)[C@H](C)C[C@H](C)/C=C/C=C/C=C/1C [Example 23a, Rapamycin-42-ester with Succinic Acid Conjugate with 5-Glycinlfluoresceinamine]",fluorescence polarization on addition of RAP-42-OVAF2#1 MoAb,RAP-42-OVAF2#1 MoAb,58 mP
same,polarization after addition of excess of RAP-42-OVAF2#1 MoAb,RAP-42-OVAF2#1 MoAb; [4],84 mP
same,fluorescence polarization on addition of FKBP12,FKBP12 [2],148 mP
same,fluorescence polarization before addition of FKBP12,FKBP12 [2],57 mP
same,polarization after addition of an excess of FKBP12,FKBP12 [2]; [4],195 mP
same,polarization of tracer alone,"FKBP12 [2]; tracer 10 nM in 100 mM sodium phosphate pH 7.5, no binder",77 mP
CO[C@@H](C[C@@H]1CC[C@@H](C)[C@](O)(C(=O)C(=O)N2CCCC[C@H]2C(=O)[O-])O1)/C(C)=C/C=C/C=C/[C@@H](C)C[C@@H](C)C(=O)[C@H](OC)[C@H](O)/C(C)=C/[C@@H](C)C(=O)/C=C/[C@H](C)C[C@@H]1CC[C@@H](O)[C@H](OC)C1.[Na+] [secorapamycin],fluorescence polarization in the presence of analyte,"FKBP12 [3]; 100 nM analyte, 128 mP in the absence of analyte, 500 uL 0.02 ug/mL FKBP12 + 500 μL 20 nM rapamycin-fluorescein",122 mP
same,effect on binding of rapamycin-fluorescein to FKBP12 (in words),FKBP12 [3]; analyte 0 to 100 nM,no effect
same,fluorescence polarization in the presence of analyte,"RAP-42-OVAF2#1; 100 nM analyte, 124 mP in the absence of analyte, 500 μL 10 μg/mL MoAb + 500 μL 20 nM secorapamycin-fluorescein",74 mP
same,effect on binding of secorapamycin fluorescein derivative to RAP-42-OVAF2#1 (in words),RAP-42-OVAF2#1; analyte 0 to 100 nM,inhibits binding
Rapamycin 31.42-Diester with Glutaric Acid Conjugate with Horseradish Peroxidase [Example 10],Prebleed (A450),Anti-rapamycin Antibody; Rabbit No. 81,0.119
same,ΔA450 (3rd Bleed-Prebleed),Anti-rapamycin Antibody; Rabbit No. 81,0.713
same,Prebleed (A450),Anti-rapamycin Antibody; Rabbit No. 89,0.136
same,ΔA450 (3rd Bleed-Prebleed),Anti-rapamycin Antibody; Rabbit No. 89,0.037
Rapamycin 31.42-Diester with Glutaric Acid Conjugate with Keyhole Limpet Hemocyanin [Example 8],mice with antibodies reactive for compound of Example 10,mice,five of the five
Rapamycin 42-Ester with 3-[3-(4-iminobutylthio)succinimidyl]phenacyl-glycine Conjugate with Horseradish Peroxidase [Example 12],ΔA450 (3rd Bleed-Prebleed),Anti-rapamycin Antibody; Rabbit No. 81,0.217
same,ΔA450 (3rd Bleed-Prebleed),Anti-rapamycin Antibody; Rabbit No. 89,0.026
Secorapamycin 42-ester with Succinic Acid Conjugate with 5-Glycinylfluoresceinamine [Example 24],binding by RAP-42-OVAF2#1 MoAb (in words),RAP-42-OVAF2#1 MoAb,binds specifically
same,fluorescence polarization before addition of RAP-42-OVAF2#1 MoAb,RAP-42-OVAF2#1 MoAb,44 mP
same,fluorescence polarization on addition of RAP-42-OVAF2#1 MoAb,RAP-42-OVAF2#1 MoAb,136 mP
same,fluorescence polarization on addition of FKBP12,FKBP12 [2],58 mP
same,fluorescence polarization before addition of FKBP12,FKBP12 [2],49 mP
B1,ΔA450 (3rd Bleed-Prebleed),Anti-rapamycin Antibody; Rabbit No. 81,0.114
same,ΔA450 (3rd Bleed-Prebleed),Anti-rapamycin Antibody; Rabbit No. 89,0.020

# Reference: patent publication US6541612B2 (Wyeth, priority 1993, dated 2003)
